Results on five compounds are retold here after article PMC9165293, “Characterization in nonhuman primates of (R)-[^18F]OF-Me-NB1 and (S)-[^18F]OF-Me-NB1 for imaging the GluN2B subunits of the NMDA receptor” (European Journal of Nuclear Medicine and Molecular Imaging, 2022).

Values joined by “and” are separate entries in the source; they are usually repeats but may differ in a detail not shown here. Identical values can stand only once. Like-named read-outs stand apart in the source and are kept apart here. Some results are limits rather than exact numbers.

Data set [1] deals with T1, GluN2B subunits of the NMDA receptor (Macaca mulatta, UniProt F6T8S6).
T1 construct: consistent with the pattern of GluN2B expression in the monkey brain; from tissue; host or cells: brain of living rhesus monkeys (in vivo PET)
Put plainly: PET imaging in rhesus monkeys, baseline scans with kinetic modeling. The class given is in vivo, rhesus monkeys (Macaca mulatta). The settings on record: for BPND, cerebellum / BPND, cingulate cortex / BPND, frontal cortex / BPND, hippocampus / BPND, semiovale / BPND, thalamus: from baseline VT and VND of Co101,244 occupancy plot; for Peak uptake SUV across brain regions / Time to peak brain uptake after tracer injection: baseline scan, monkey brain; for VT, cerebellum / VT, cingulate cortex / VT, frontal cortex / VT, hippocampus / VT, semiovale / VT, thalamus: baseline, MA1. The procedure:
(§1) A total of seven PET scans in two monkeys were acquired. Each monkey underwent one baseline scan with (R)-[^18F]OF-Me-NB1, and two blocking scans at 10 min after the injection of the GluN2B antagonist Co-101,244 (0.25 mg/kg) or the sigma-1 antagonist FTC-146 (0.027 and 0.125 mg/kg). Co-101,244 and FTC-146 were previously used by Cai et al. to determine the in vivo binding specificity and selectivity of a radiotracer from the same scaffold, [^11C]NR2B-SMe, in rodents. In addition, a baseline scan with (S)-[^18F]OF-Me-NB1 was also performed in one monkey. All procedures were approved by the Yale University Institutional Animal Care and Use Committee.
(§2) Animals were sedated with a combination of alfaxalone (2 mg/kg), midazolam (0.3 mg/kg), and dexmedetomidine (0.01 mg/kg) and maintained in an anesthetized state with 1.5–2.5% isoflurane in oxygen. Heart rate, blood pressure, respiration rate, oxygen saturation, and respiration rate were monitored continuously. An arterial line was placed in the radial artery for blood sampling.
Dynamic PET data were acquired on the Focus 220 scanner (Siemens Medical Solutions, Knoxville, TN, USA). Before radiotracer injection, a 9 min transmission scan was obtained for attenuation correction. The radiotracer (10 mL) was administered intravenously as a slow bolus over 3 min. Emission data were collected in list mode for 90 or 120 min and binned into frames of increasing durations (6 × 30 s, 3 × 1 min, 2 × 2 min, and […]).
High-resolution magnetic resonance images were acquired with a Siemens 3 T Trio scanner for the region of interest (ROI) definition. PET emission data were attenuation-corrected using the transmission scan, then reconstructed using a Fourier rebinning and filtered back-projection algorithm. PET images summed from the first 10 min of each scan were registered to the anatomical MR image. Inverted transformations were applied to register an atlas ROI mask to the PET image, and time-activity curves (TACs) were extracted from each ROI: frontal, occipital, temporal, cingulate and insular cortex, caudate, putamen, globus pallidus, nucleus accumbens, amygdala, hippocampus, thalamus, pons, substantia nigra, cerebellum, and centrum semiovale.
(§3) Kinetic parameters were determined by fitting the regional TACs and metabolite-corrected arterial input functions to the one-tissue compartment (1TC) and two-tissue compartment (2TC) models, as well as the multilinear analysis 1 (MA1) method with starting time of 30 min [28]. The regional volume of distribution (VT, mL/cm^3) was derived in each case.

Data set [2] deals with T1, GluN2B subunits of the NMDA receptor. Put plainly: PET blocking studies and occupancy (Lassen) plot with (R)-[^18F]OF-Me-NB1. The class given is in vivo, rhesus monkeys (Macaca mulatta). As to conditions: for VT, cerebellum / VT, cingulate cortex / VT, frontal cortex / VT, hippocampus / VT, semiovale / VT, thalamus: MA1; for Non-displaceable volume of distribution (VND): from occupancy plot with Co101,244 0.25 mg/kg; for Receptor occupancy (occupancy plot): tracer (R)-[^18F]OF-Me-NB1. As to the method: as §1, §3
For the blocking studies, occupancy plots were constructed using regional VT values at baseline and differences in VT between baseline and blocking scans. Percent target occupancy across the brain and non-displaceable volume of distribution (VND) was then determined from the resulting linear relationship, where the slope is the uniform receptor occupancy by the drug in the brain [29].

Another data set concerns the target sigma-1 receptor. As to conditions: cited from earlier work.
Data set [3] is described as follows: Plasma metabolite analysis (parent fraction over time). The class given is in vivo, rhesus monkeys. The settings on record: for Parent fraction of total plasma activity: baseline scans; for Effect of pretreatment on parent fraction of (R)-[^18F]OF-Me-NB1 in plasma: blocking scans. The procedure:
Measurements of plasma activity and parent fraction over time were performed as previously described. Arterial or venous blood samples were collected at preselected time points and assayed for radioactivity in whole blood and plasma with cross-calibrated gamma counters (Wizard 1480/2480, Perkin Elmer, Waltham, MA, USA). The volume of the whole blood or plasma (50–200 µL) was determined by the weight of the sample. Parent fraction was calculated as the ratio of the total radioactivity in fractions containing the parent compound to the total amount of radioactivity collected and fitted with an inverted gamma function and corrected for filtration efficiency. The arterial plasma input function (AIF) was then calculated as the product of the total counts in the plasma and the interpolated parent fraction at each time point.

Data set [4] can be described thus: Measurement of lipophilicity (log D7.4), 1-octanol/PBS. The settings on record: 1-octanol/PBS pH 7.4; n = 4. The class given is physicochemical. As to the method:
Lipophilicity (log D7.4) was measured using the method previously reported. Log D7.4 was calculated as the ratio of decay-corrected radioactivity concentrations in 1-octanol and phosphate-buffered saline (PBS, pH = 7.4, Dulbecco). Six consecutive equilibrations were performed until a constant value of log D7.4 was obtained.

A short description of data set [5]: Plasma free fraction (fP) by ultrafiltration. The class given is in vitro ADME, rhesus monkeys. The settings on record: monkey plasma. The procedure: The ultrafiltration method was used for measuring the unbound portion (free fraction) of [^18F]OF-Me-NB1 in plasma as previously described. The fP was determined as the ratio of the radioactivity concentration in the filtrate to the total activity in plasma. Measurements of fP were performed in triplicate for each scan.

Data set [6] has as its target GluN2B subunit-containing NMDARs. As to conditions: cited from earlier work.
Data set [7] is described as follows: Vital signs monitoring during PET scans. The class given is in vivo, rhesus monkeys. As to conditions: after the injections of blocking drug and tracer for the blocking scan. As to the method: as §2
Where [8] appears, read: M1 (male), listed as (R)–[^18F]OF–Me–NB1.
[9] abbreviates: blocking with Co 101,244 (0.25 mg/kg), M1.
Setting [10] is: blocking with Co 101,244 (0.25 mg/kg), M2.
Where [11] appears, read: blocking with FTC-146 (0.027 mg/kg), M1.
Where [12] appears, read: blocking with FTC-146 (0.125 mg/kg), M2.

T1 sequence (F6T8S6 29-1484): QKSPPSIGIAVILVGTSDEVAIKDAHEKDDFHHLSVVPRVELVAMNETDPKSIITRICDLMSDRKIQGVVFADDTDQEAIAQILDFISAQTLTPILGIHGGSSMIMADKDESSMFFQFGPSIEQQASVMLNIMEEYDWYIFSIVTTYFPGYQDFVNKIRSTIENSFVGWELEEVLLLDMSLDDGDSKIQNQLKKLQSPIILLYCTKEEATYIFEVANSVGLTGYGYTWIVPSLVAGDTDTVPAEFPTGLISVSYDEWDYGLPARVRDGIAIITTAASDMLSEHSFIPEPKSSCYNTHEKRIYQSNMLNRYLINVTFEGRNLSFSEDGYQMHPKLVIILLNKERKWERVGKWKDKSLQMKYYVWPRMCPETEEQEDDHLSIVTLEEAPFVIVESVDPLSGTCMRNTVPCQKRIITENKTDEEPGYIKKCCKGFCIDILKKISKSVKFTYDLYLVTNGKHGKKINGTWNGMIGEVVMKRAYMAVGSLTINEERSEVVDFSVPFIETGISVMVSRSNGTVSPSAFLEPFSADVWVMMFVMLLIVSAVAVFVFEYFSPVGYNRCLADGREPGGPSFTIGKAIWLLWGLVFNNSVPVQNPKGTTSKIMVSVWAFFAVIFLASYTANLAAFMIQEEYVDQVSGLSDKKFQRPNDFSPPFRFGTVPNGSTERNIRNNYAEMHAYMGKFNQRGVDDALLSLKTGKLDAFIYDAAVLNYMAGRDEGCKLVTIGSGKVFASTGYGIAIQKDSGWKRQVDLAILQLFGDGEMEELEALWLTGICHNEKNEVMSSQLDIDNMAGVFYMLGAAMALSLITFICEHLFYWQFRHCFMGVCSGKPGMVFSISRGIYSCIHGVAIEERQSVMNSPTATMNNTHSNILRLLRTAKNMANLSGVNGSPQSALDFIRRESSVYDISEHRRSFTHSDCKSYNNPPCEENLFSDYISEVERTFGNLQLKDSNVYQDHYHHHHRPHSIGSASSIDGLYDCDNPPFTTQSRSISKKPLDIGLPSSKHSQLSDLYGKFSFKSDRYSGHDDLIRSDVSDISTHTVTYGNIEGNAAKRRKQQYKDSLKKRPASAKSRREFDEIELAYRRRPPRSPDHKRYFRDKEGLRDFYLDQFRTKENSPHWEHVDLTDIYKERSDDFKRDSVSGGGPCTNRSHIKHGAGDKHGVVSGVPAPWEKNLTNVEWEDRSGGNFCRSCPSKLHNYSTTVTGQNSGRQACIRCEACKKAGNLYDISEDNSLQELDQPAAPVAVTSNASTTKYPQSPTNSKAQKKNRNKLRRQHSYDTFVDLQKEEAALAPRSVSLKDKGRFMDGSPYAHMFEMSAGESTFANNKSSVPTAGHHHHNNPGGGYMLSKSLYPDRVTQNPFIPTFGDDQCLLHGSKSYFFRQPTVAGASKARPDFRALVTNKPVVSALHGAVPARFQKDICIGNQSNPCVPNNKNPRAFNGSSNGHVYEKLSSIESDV

Usually Ki stands for the dissociation constant of the complex between target and ligand, obtained from inhibition or displacement. In general, logD refers to the decadic logarithm of the distribution of all forms, ionised or not, between an organic phase and buffer at a given pH. As a reminder, the fraction unbound is the share of the substance not bound to proteins or other matrix. For `COc1ccc2c(c1)CCN(CCCCc1ccccc1[18F])C[C@@H]2O` [(R)-[^18F]OF-Me-NB1], in data set [1] (M1 (male)), the “BPND, cerebellum” value is recorded as 0.4; the “BPND, cingulate cortex” value turned out to be 1.0; the “BPND, frontal cortex” value was 0.68; the “BPND, hippocampus” value is 0.73. For the same compound, in data set [1] (M1 (male)), the “BPND, semiovale” value is recorded as 0.43 and the “BPND, thalamus” value amounted to 0.48. In data set [1] (setting [8]), the “BPND, cerebellum” value stood at 0.40 and the “BPND, cingulate cortex” value turned out to be 1.01. In data set [1] (M2 (female)), the “BPND, cerebellum” value stood at 0.43; the “BPND, cingulate cortex” value was found to be 0.90; the “BPND, frontal cortex” value came out at 0.60; the “BPND, hippocampus” value stood at 0.60. In data set [1] (M2 (female)), the “BPND, semiovale” value was found to be 0.48 and the “BPND, thalamus” value worked out at 0.50. For the same compound, in data set [1], the “Peak uptake SUV across brain regions” value is 4.5–6.5 and the “Time to peak brain uptake after tracer injection” value is on record as no more than 20 min. Also, in data set [1] (M1), the “VT, cerebellum” value stood at 8.9 mL/cm^3; the “VT, cingulate cortex” value amounted to 12.8 mL/cm^3; the “VT, frontal cortex” value was 10.7 mL/cm^3; the “VT, hippocampus” value is 11.0 mL/cm^3. In data set [1] (M1), the “VT, semiovale” value is recorded as 9.1 mL/cm^3 and the “VT, thalamus” value is 9.4 mL/cm^3. Further, in data set [1] (M2), the “VT, cerebellum” value is on record as 9.2 mL/cm^3; the “VT, cingulate cortex” value was determined as 12.2 mL/cm^3; the “VT, frontal cortex” value was determined as 10.3 mL/cm^3; the “VT, hippocampus” value is reported as 10.3 mL/cm^3. Further, in data set [1] (M2), the “VT, semiovale” value is given as 9.5 mL/cm^3 and the “VT, thalamus” value is 9.6 mL/cm^3. The “BPND in most brain regions” value in data set [1] (rhesus monkeys) was greater than 0.5. Besides, in data set [2] (setting [9]), the “VT, cerebellum” value amounted to 6.9 mL/cm^3; the “VT, cingulate cortex” value was found to be 8.1 mL/cm^3; the “VT, frontal cortex” value is reported as 6.8 mL/cm^3; the “VT, hippocampus” value amounted to 6.9 mL/cm^3. Also, in data set [2] (setting [9]), the “VT, semiovale” value is 8.6 mL/cm^3 and the “VT, thalamus” value came to 6.8 mL/cm^3. In data set [2] (setting [10]), the “VT, cerebellum” value was 7.6 mL/cm^3; the “VT, cingulate cortex” value is on record as 7.9 mL/cm^3; the “VT, frontal cortex” value was 7.4 mL/cm^3; the “VT, hippocampus” value was found to be 7.3 mL/cm^3. In data set [2] (setting [10]), the “VT, semiovale” value is 8.0 mL/cm^3 and the “VT, thalamus” value came out at 6.8 mL/cm^3. Also, in data set [2] (setting [11]), the “VT, cerebellum” value came out at 9.3 mL/cm^3; the “VT, cingulate cortex” value is listed as 11.6 mL/cm^3; the “VT, frontal cortex” value was determined as 9.4 mL/cm^3; the “VT, hippocampus” value is given as 10.5 mL/cm^3. In addition, in data set [2] (setting [11]), the “VT, semiovale” value came to 9.5 mL/cm^3 and the “VT, thalamus” value is recorded as 9.4 mL/cm^3. Further, in data set [2] (setting [12]), the “VT, cerebellum” value is reported as 8.7 mL/cm^3; the “VT, cingulate cortex” value was determined as 10.1 mL/cm^3; the “VT, frontal cortex” value was determined as 9.2 mL/cm^3; the “VT, hippocampus” value was 9.2 mL/cm^3. In data set [2] (setting [12]), the “VT, semiovale” value was 8.4 mL/cm^3 and the “VT, thalamus” value turned out to be 8.6 mL/cm^3. Further, the “Non-displaceable volume of distribution (VND)” value in data set [2] (female monkey (monkey 2)) was found to be 6.4 mL/cm^3. Also, the “Non-displaceable volume of distribution (VND)” value in data set [2] (male monkey (monkey 1)) is 6.36 mL/cm^3 and 6.4 mL/cm^3. In addition, the Ki at sigma-1 receptor was 100 nM. The “Parent fraction of total plasma activity” value in data set [3] (30 min after tracer injection) was ~ 30%. The “Parent fraction of total plasma activity” value in data set [3] (90 min after tracer injection) stood at 20%. Besides, the log distribution coefficient (logD) in data set [4] worked out at 2.85 ± 0.01. In data set [5], this compound displayed a fraction unbound of 0.012 ± 0.002. Also, the Ki in data set [6] (read-out: Ki, binding affinity to GluN2B) was 4 nM.
For `CC(C(O)c1ccc(O)cc1)N1CCC(Cc2ccccc2)CC1` (centres unmarked) [Ifenprodil, reference compound], in data set [6] (read-out: Ki, GluN2B subunit-containing NMDARs), the Ki was 10 nM.
`O=c1sc2cc(CCCF)ccc2n1CCN1CCCCCC1` [FTC-146, reference compound]: in data set [2] (FTC-146 0.125 mg/kg, female monkey (monkey 2)), the “Receptor occupancy (occupancy plot)” value stood at 33%. Besides, in data set [3], the “Effect of pretreatment on parent fraction of (R)-[^18F]OF-Me-NB1 in plasma” value is given as “had little effect”. In addition, in data set [7], the Blood pressure drop was ~ 20%.
As for `Cc1ccc(CC2(O)CCN(CCOc3ccc(O)cc3)CC2)cc1` [Co101,244, reference compound], the “Receptor occupancy (occupancy plot)” value was 68% in data set [2] (Co101,244 0.25 mg/kg, female monkey (monkey 2)) and 77% in data set [2] (Co101,244 0.25 mg/kg, male monkey (monkey 1)). Besides, the “Effect of pretreatment on parent fraction of (R)-[^18F]OF-Me-NB1 in plasma” value in data set [3] is listed as “appeared to accelerate the decrease in parent fraction”. In addition, the Blood pressure drop in data set [7] is recorded as ~ 20%.
Turning to `COc1ccc2c(c1)CCN(CCCCc1ccccc1[18F])C[C@H]2O` [(S)-[^18F]OF-Me-NB1], in data set [1], the “Peak uptake SUV across brain regions” value is listed as 3.0–4.5 and the “Time to peak brain uptake after tracer injection” value is reported as no more than 15 min. Further, in data set [3] (30 min after tracer injection), the “Parent fraction of total plasma activity” value is 20% and ~ 20%. Besides, the “Parent fraction of total plasma activity” value in data set [3] (90 min after tracer injection) is reported as ~ 10%. This compound also came in with an unbound share (fraction unbound) in data set [5] of 0.018.
